Laboratory results taken from ChEMBL document CHEMBL1128582, “Chiral dioxolane inhibitors of leukotriene biosynthesis: structure-activity relationships and syntheses using asymmetric dihydroxylation” (J Med Chem, 1995).

Biological target: T1, Polyunsaturated fatty acid 5-lipoxygenase (Homo sapiens, UniProt P09917)
T1 sequence (P09917 whole entry): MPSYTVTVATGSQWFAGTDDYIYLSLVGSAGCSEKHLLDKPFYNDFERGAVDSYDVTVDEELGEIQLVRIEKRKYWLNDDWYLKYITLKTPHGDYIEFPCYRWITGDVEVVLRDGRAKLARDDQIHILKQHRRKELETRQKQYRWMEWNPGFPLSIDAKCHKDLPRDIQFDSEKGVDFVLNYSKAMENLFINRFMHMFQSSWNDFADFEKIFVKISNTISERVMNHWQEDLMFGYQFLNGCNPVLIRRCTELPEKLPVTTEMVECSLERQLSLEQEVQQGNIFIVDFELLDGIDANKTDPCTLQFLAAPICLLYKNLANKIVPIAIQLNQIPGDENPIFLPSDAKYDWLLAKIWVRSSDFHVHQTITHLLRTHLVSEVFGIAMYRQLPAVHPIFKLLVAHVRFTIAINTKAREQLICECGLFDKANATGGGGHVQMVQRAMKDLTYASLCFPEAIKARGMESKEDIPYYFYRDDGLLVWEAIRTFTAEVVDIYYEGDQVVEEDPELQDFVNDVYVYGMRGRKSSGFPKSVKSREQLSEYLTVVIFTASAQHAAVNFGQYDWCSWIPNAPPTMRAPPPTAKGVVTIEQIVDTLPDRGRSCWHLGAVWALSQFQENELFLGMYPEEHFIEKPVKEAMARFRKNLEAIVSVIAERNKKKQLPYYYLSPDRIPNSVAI
Assay: Inhibition of LT biosynthesis in vitro using A-23187-stimulated human whole blood.
Format: functional, tissue-based

`COC1(c2cc(Sc3ccc(/C(C)=N/O)cc3)cc(F)c2C)CCOCC1` gave an IC50 of 20 nM.
For `CC1(C)OCC(C)(c2cccc(OCc3ccc4ccccc4c3)c2)O1` (stereo unspecified), the IC50 was 350 nM.
In the case of `CN(c1ccc(Sc2cc(C3(C)COC(C)(C)O3)cs2)cc1)S(C)(=O)=O` (stereo unspecified), the IC50 is reported as 160 nM.
`CO/N=C(\C)c1ccc(Sc2cc(C3(C)COC(C)(C)O3)cs2)cc1` (stereo unspecified) showed an IC50 of 270 nM.
With `C/C(=N\O)c1ccc(Sc2cc(C3(C)COC(C)(C)O3)cs2)cc1` (stereo unspecified) the IC50 was 40 nM.
`CC(=O)c1ccc(Sc2cc(C3(C)COC(C)(C)O3)cs2)cc1` (stereo unspecified) was tested, and the IC50 was 600 nM.
`CN(C)S(=O)(=O)c1ccc(Sc2cc(C3(C)COC(C)(C)O3)cs2)cc1` (stereo unspecified) gave an IC50 of 210 nM.
In the case of `CN1C(=O)CCc2ccc(Sc3cc(C4(C)COC(C)(C)O4)cs3)cc21` (stereo unspecified), the IC50 is reported as 100 nM.
With `COC1(c2cc(OCc3ccc4c(ccc(=O)n4C)c3)cc(F)c2C)CCOCC1` the IC50 was 20 nM.
`CC(=O)N(C)c1ccc(Sc2cc(C3(C)COC(C)(C)O3)cs2)cc1` (stereo unspecified) showed an IC50 of 150 nM.
Work on `C/C(=N\OCC#N)c1ccc(S(=O)(=O)c2cc([C@@]3(C)COC(C)(C)O3)cs2)cc1` yielded an IC50 of 50 nM.
In the case of `CC(=O)N(C)c1ccc(Sc2cc([C@]3(C)COC(C)(C)O3)cs2)cc1`, the IC50 is reported as 1180 nM.
Work on `C/C(=N\O)c1ccc(S(=O)(=O)c2ncc([C@@]3(C)COC(C)(C)O3)s2)cc1` yielded an IC50 of 200 nM.
Compound `C/C(=N\O)c1ccc(S(=O)(=O)c2cc([C@@]3(C)COC(C)(C)O3)cs2)cc1` has an IC50 of 90 nM.
`CC(=O)c1ccc(Sc2ncc([C@@]3(C)COC(C)(C)O3)s2)cc1` showed an IC50 of 390 nM.
`COC1(c2cc(Sc3ccc4c(c3)OCC(=O)N4C)cc(F)c2C)CCOCC1` gave an IC50 of 40 nM.
With `COC1(c2cc(S(=O)(=O)c3ccc4c(ccc(=O)n4C)c3)ccc2C)CCOCC1` the IC50 was 40 nM.
Compound `COC1(c2cc(Sc3ccc4c(c3)CCC(=O)N4C)cc(F)c2C)CCOCC1` has an IC50 of 60 nM.
Work on `C/C(=N\OCC#N)c1ccc(Sc2cc([C@@]3(C)COC(C)(C)O3)cs2)cc1` yielded an IC50 of 10 nM.
`CC(=O)N(C)c1ccc(Sc2cc([C@@]3(C)COC(C)(C)O3)cs2)cc1` gave an IC50 of 40 nM.
Compound `C/C(=N\O)c1ccc(Sc2cc([C@@]3(C)COC(C)(C)O3)cs2)cc1` has an IC50 of 40 nM.
Compound `COC1(c2sc(Sc3ccc4c(c3)CCC(=O)N4C)nc2C)CCOCC1` has an IC50 of 140 nM.
`C/C(=N\OCCN1CCOCC1)c1ccc(Sc2cc([C@@]3(C)COC(C)(C)O3)cs2)cc1` was tested, and the IC50 was 1510 nM.
`C/C(=N\OCC#N)c1ccc(S(=O)(=O)c2ncc([C@@]3(C)COC(C)(C)O3)s2)cc1` showed an IC50 of 120 nM.
`CN1C(=O)COc2ccc(Sc3cc(C4(C)COC(C)(C)O4)cs3)cc21` (stereo unspecified) was tested, and the IC50 was 40 nM.
Compound `CC(=O)N(C)c1ccc(Sc2ncc([C@]3(C)COC(C)(C)O3)s2)cc1` has an IC50 of 6210 nM.
Compound `COC1(c2cc(Sc3ccc(N(C)C(C)=O)cc3)cc(F)c2C)CCOCC1` has an IC50 of 30 nM.
For `COC1(c2cc(Sc3ccc4c(c3)CCC(=O)N4C)sc2C)CCOCC1`, the IC50 was 20 nM.
Compound `C/C(=N\O)c1ccc(Sc2ncc([C@@]3(C)COC(C)(C)O3)s2)cc1` has an IC50 of 130 nM.
Compound `CC(=O)N(C)c1ccc(S(=O)(=O)c2cc(C3(C)COC(C)(C)O3)cs2)cc1` (stereo unspecified) has an IC50 of 840 nM.
`C/C(=N\OCC#N)c1ccc(Sc2ncc([C@@]3(C)COC(C)(C)O3)s2)cc1` gave an IC50 of 30 nM.
